# In patent US8022203B2, “Amino derivatives of beta-homoandrostanes and beta-heteroandrostanes” (Sigma-Tau Industrie Farmaceutiche Riunite S.p.A., priority 2006, dated 2011):
# pIC50: −log10 of the molar value. Counter-ions that a name gives are not always drawn. Like-named read-outs stand apart in the source and are kept apart here.
# Columns and labels:
# Na^+,K^+-ATPase = Na^+,K^+-ATPase (Canis lupus familiaris, UniProt P50997); assay: Dog kidney Na+,K+-ATPase inhibition (hydrolysis of 32P-ATP); type: biochemical
# anesthetized guinea-pig = assay: Inotropic effect and lethal dose, slow intravenous infusion in anesthetized guinea-pig; conditions: for % decrease from Emax after 20 min from the end of the infusion: 20 minutes after the end of the infusion; for Maximum dose infused: in the survived animals; for safety ratio compared with reference cardiotonics / duration of the inotropic effect: in words; for duration of the inotropic effect: after stopping the infusion; for Dead/treated / ED80 (dose increasing +dP/dTmax by 80%) / EDmax (dose inducing maximum positive inotropic effect) / Emax % increase in +dP/dTmax: slow intravenous infusion over 90 minutes; for Lethal dose/ED80: calculated in the died animals
# [1] = tested on: spontaneous hypertensive rats of the Milan (MHS); assay: Systolic blood pressure fall in spontaneous hypertensive rats (MHS), tail-cuff; type: in vivo, rat; conditions: five weeks, vs vehicle control
# [2] = dog kidney enzyme, read-out: Na^+,K^+-ATPase Inhibition IC50
# [3] = Na^+,K^+-ATPase Inhibition IC50
smiles,measurement,setting,value
"CC12CCC3C(OCCC4CC(=NOCCN)CCC43C)C1CCC2=O (stereo not shown) [I-bt, (E,Z)-3-(2-Aminoethoxyimino)-7a-oxa-7a-homoandrostane-17-one hydrochloride]",pIC50,"Na^+,K^+-ATPase; [2]",6.80
"CC12CCC3C(C1CCC2=O)N(C=O)CCC1CC(=NOC2CCNC2)CCC13C [I-bd, (E,Z) 3-[3-(R)-Pyrrolidinyl]oxyimino-7a-aza-7a-formyl-7a-homoandrostane-17-one hydrochloride]",pIC50,"Na^+,K^+-ATPase; [2]",4.24
"CC12CCC3C(CC(=O)NC4CC(=NOCCN)CCC43C)C1CCC2=O (stereo not shown) [I-bn, (Z) 3-(2-Aminoethoxyimino)-6-aza-7a-homoandrostane-7,17-dione fumarate]",pIC50,"Na^+,K^+-ATPase; [3]",4.21
"CC12CCC3C(NCCC4CC(=NOC5CCNC5)CCC43C)C1CCC2=O [I-ba, (E,Z) 3-[3-(R)-Pyrrolidinyl]oxyimino-7a-aza-7a-homoandrostane-17-one Difumarate]",pIC50,"Na^+,K^+-ATPase; [3]",6.85
same,% decrease from Emax after 20 min from the end of the infusion,anesthetized guinea-pig,55%
same,Maximum dose infused,anesthetized guinea-pig,50.0 µmol/kg
same,safety ratio compared with reference cardiotonics,anesthetized guinea-pig,higher safety ratios than those displayed by digitoxin and compd 22b
same,duration of the inotropic effect,anesthetized guinea-pig,prolonged action
same,Dead/treated,anesthetized guinea-pig,0/3
same,ED80 (dose increasing +dP/dTmax by 80%),anesthetized guinea-pig,1.68 µmol/kg
same,EDmax (dose inducing maximum positive inotropic effect),anesthetized guinea-pig,10.1 µmol/kg
same,Emax % increase in +dP/dTmax,anesthetized guinea-pig,218%
"CON=C1CC2C3CCC(=O)C3(C)CCC2C2(C)CCC(=NOC3CCNC3)CC2N1 [I-au, 3-(E,Z)-[3-(R)-Pyrrolidinyl]oxyimino-6-aza-7a-homo-7-(Z)-methoxyimino-androstane-17-one hydrochloride]",pIC50,"Na^+,K^+-ATPase; [3]",4.17
"CC12CCC3C(C(=O)NC4CC(=NOC5CCNC5)CCC43C)C1CCC2=O [I-bv, (E,Z) 3-[3-(R)-Pyrrolidinyl]oxyimino-6-azaandrostane-7,17-dione fumarate]",pIC50,"Na^+,K^+-ATPase; [3]",5.85
"CC12CCC3C(CCOC4CC(=NOCCN)CCC43C)C1CCC2=O (stereo not shown) [I-bs, (E,Z)-3-(2-Aminoethoxyimino)-6-oxa-7a-homoandrostane-17-one hydrochloride]",pIC50,"Na^+,K^+-ATPase; [2]",6.89
"CNCCCON=C1CCC2(C)C(CC(=O)NC3C4CCC(=O)C4(C)CCC32)C1 (stereo not shown) [I-aw, (E,Z) 3-(3-N-Methylaminopropoxyimino)-7a-aza-7a-homoandrostane-7,17-dione hydrochloride]",pIC50,"Na^+,K^+-ATPase; [2]",5.00
"CC12CCC3C(CC(=O)NC4CC(=NOC5CCNC5)CCC43C)C1CCC2=O [I-ad, (E,Z) 3-[3-(R)-Pyrrolidinyl]oxyimino-6-aza-7a-homoandrostane-7,17-dione fumarate]",pIC50,"Na^+,K^+-ATPase; [3]",6.02
"CC12CCC3C(C(=O)OC4CC(=NOCCN)CCC43C)C1CCC2=O (stereo not drawn) [I-bl, (E,Z) 3-(2-Aminoethoxyimino)-6-oxa-5β-androstane-7,17-dione hydrochloride]",pIC50,"Na^+,K^+-ATPase; [2]",5.60
"CC12CCC3C(OC(=O)CC4CC(=NOC5CCNC5)CCC43C)C1CCC2=O [I-bk, (E,Z) 3-[3-(R)-Pyrrolidinyl]oxyimino-7a-oxa-7a-homoandrostane-7,17-dione hydrochloride]",pIC50,"Na^+,K^+-ATPase; [3]",6.44
same,% decrease from Emax after 20 min from the end of the infusion,anesthetized guinea-pig,50%
same,Maximum dose infused,anesthetized guinea-pig,25.3 µmol/kg
same,safety ratio compared with reference cardiotonics,anesthetized guinea-pig,higher safety ratios than those displayed by digitoxin and compd 22b
same,duration of the inotropic effect,anesthetized guinea-pig,prolonged action
same,Dead/treated,anesthetized guinea-pig,0/3
same,ED80 (dose increasing +dP/dTmax by 80%),anesthetized guinea-pig,2.11 µmol/kg
same,EDmax (dose inducing maximum positive inotropic effect),anesthetized guinea-pig,23.9 µmol/kg
same,Emax % increase in +dP/dTmax,anesthetized guinea-pig,254%
"CC12CCC3C(CCCC4CC(=NOC5CCNC5)CCC43C)C1CCC2=O [I-bp, (E,Z)-3-[3-(R)-Pyrrolidinyl]oxyimino-B-homoandrostane-17-one hydrochloride]",pIC50,"Na^+,K^+-ATPase; [3]",7.40
"CC12CCC3C(CCNC4CC(=NOC5CCNC5)CCC43C)C1CCC2=O [I-am, (E,Z) 3-[3-(R)-Pyrrolidinyl]oxyimino-6-aza-7a-homoandrostane-17-one dihydrochloride]",pIC50,"Na^+,K^+-ATPase; [3]",5.02
"CNCCCON=C1CCC2(C)C(C1)OC(=O)CC1C3CCC(=O)C3(C)CCC12 (stereo not shown) [I-bq, (E,Z)-3-(3-N-Methylaminopropoxyimino)-6-oxa-7a-homoandrostane-7,17-dione fumarate]",pIC50,"Na^+,K^+-ATPase; [3]",5.43
"CNCCCON=C1CCC2(C)C(C1)C(=O)OCC1C3CCC(=O)C3(C)CCC12 (stereo not shown) [I-bf, (E,Z)-3-(3-N-Methylaminopropoxyimino)-7-oxa-7a-homoandrostane-6,17-dione hydrochloride]",pIC50,"Na^+,K^+-ATPase; [3]",5.72
"CNCCCON=C1CCC2(C)C(CC(=O)OC3C4CCC(=O)C4(C)CCC32)C1 (stereo not shown) [I-bj, (E,Z) 3-(3-N-Methylaminopropoxyimino)-7a-oxa-7a-homoandrostane-7,17-dione hydrochloride]",pIC50,"Na^+,K^+-ATPase; [3]",5.66
"CC12CCC3C(CC(=S)NC4CC(=NOCCN)CCC43C)C1CCC2=O (stereo not shown) [I-aj, (E,Z) 3-(2-Aminoethoxyimino)-6-aza-7a-homo-7-thioxoandrostane-17-one hydrochloride]",pIC50,"Na^+,K^+-ATPase; [2]",5.19
"C[C@H]1O[C@@H](O[C@H]2[C@@H](O)C[C@H](O[C@H]3[C@@H](O)C[C@H](O[C@H]4CC[C@@]5(C)[C@H](CC[C@@H]6[C@@H]5C[C@@H](O)[C@]5(C)[C@@H](C7=CC(=O)OC7)CC[C@]65O)C4)O[C@@H]3C)O[C@@H]2C)C[C@H](O)[C@@H]1O [digoxin, reference compound]",% decrease from Emax after 20 min from the end of the infusion,anesthetized guinea-pig,100%
same,Lethal dose/ED80,anesthetized guinea-pig,4.0
same,Maximum dose infused,anesthetized guinea-pig,1.16 µmol/kg
same,Dead/treated,anesthetized guinea-pig,10/10
same,ED80 (dose increasing +dP/dTmax by 80%),anesthetized guinea-pig,0.29 µmol/kg
same,EDmax (dose inducing maximum positive inotropic effect),anesthetized guinea-pig,0.65 µmol/kg
same,Emax % increase in +dP/dTmax,anesthetized guinea-pig,158%
"CC12CCC3C(COC(=O)C4CC(=NOCCN)CCC43C)C1CCC2=O (stereo not shown) [I-be, (E,Z) 3-(2-Aminoethoxyimino)-7-oxa-7a-homoandrostane-6,17-dione hydrochloride]",pIC50,"Na^+,K^+-ATPase; [3]",5.80
"C[C@]12CCC(=NOCCN)CC1C(=O)C[C@@H]1[C@@H]2CC[C@]2(C)C(=O)CC[C@@H]12.Cl (mixture of isomers) [Compd. 22b, (EZ) 3-(2-aminoethoxyimino)androstane-6,17-dione hydrochloride, reference compound]",pIC50,"Na^+,K^+-ATPase; [2]",6.48
same,SBP - %,[1]; 10 μg/kg/os daily,2.2%
same,SBP - mm Hg (decrease in systolic blood pressure),[1]; 10 μg/kg/os daily,3.6 +/− 4.8 mm Hg
same,SBP - %,[1]; 100 μg/kg/os daily,6.6%
same,SBP - mm Hg (decrease in systolic blood pressure),[1]; 100 μg/kg/os daily,10.7 +/− 7.5 mm Hg
same,% decrease from Emax after 20 min from the end of the infusion,anesthetized guinea-pig,100%
same,Lethal dose/ED80,anesthetized guinea-pig,22.6
same,Maximum dose infused,anesthetized guinea-pig,32.1 µmol/kg
same,Dead/treated,anesthetized guinea-pig,7/8
same,ED80 (dose increasing +dP/dTmax by 80%),anesthetized guinea-pig,1.82 µmol/kg
same,EDmax (dose inducing maximum positive inotropic effect),anesthetized guinea-pig,5.74 µmol/kg
same,Emax % increase in +dP/dTmax,anesthetized guinea-pig,182%
"CC12CCC3C(NCCC4CC(=NOCCN)CCC43C)C1CCC2=O (stereo not shown) [I-ay, (E,Z) 3-(2-Aminoethoxyimino)-7a-aza-7a-homoandrostane-17-one difumarate]",pIC50,"Na^+,K^+-ATPase; [2]",6.40
"CNCCCON=C1CCC2(C)C(C1)NC(=O)CC1C3CCC(=O)C3(C)CCC12 (stereo not shown) [I-ac, (E,Z) 3-(3-N-Methylaminopropoxyimino)-6-aza-7a-homoandrostane-7,17-dione fumarate]",pIC50,"Na^+,K^+-ATPase; [2]",4.72
same,SBP - %,[1]; 10 μg/kg/os daily,4.2%
same,SBP - mm Hg (decrease in systolic blood pressure),[1]; 10 μg/kg/os daily,7.2 +/− 0.7 mm Hg
"CC12CCC3C(CC(=O)OC4CC(=NOCCN)CCC43C)C1CCC2=O (stereo not shown) [I-bh, (E,Z) 3-(2-Aminoethoxyimino)-6-oxa-7a-homoandrostane-7,17-dione fumarate]",pIC50,"Na^+,K^+-ATPase; [2]",6.62
"CC12CCC3C(NC(=O)CC4CC(=NOCCN)CCC43C)C1CCC2=O (stereo not shown) [I-av, (E,Z) 3-(2-Aminoethoxyimino)-7a-aza-7a-homoandrostane-7,17-dione hydrochloride]",pIC50,"Na^+,K^+-ATPase; [2]",4.57
"CNCCCON=C1CCC2(C)C(CCNC3C4CCC(=O)C4(C)CCC32)C1 (stereo not shown) [I-az, (E,Z) 3-(3-N-Methylaminopropoxyimino)-7a-aza-7a-homoandrostane-17-one difumarate]",pIC50,"Na^+,K^+-ATPase; [2]",5.74
"CC12CCC3C(CC(=O)OC4CC(=NOC5CCNC5)CCC43C)C1CCC2=O [I-br, (E,Z) 3-[3-(R)-Pyrrolidinyl]oxyimino-6-oxa-7a-homoandrostane-7,17-dione fumarate]",pIC50,"Na^+,K^+-ATPase; [3]",5.89
"CC12CCC3C(CCCC4CC(=NOCCN)CCC43C)C1CCC2=O (stereo not shown) [I-bo, (E,Z) 3-(2-Aminoethoxyimino)-B-homoandrostane-17-one hydrochloride]",pIC50,"Na^+,K^+-ATPase; [3]",7.15
"CC12CCC3C(CCNC4CC(=NOCCN)CCC43C)C1CCC2=O (stereo not shown) [I-ak, (E,Z)—3-(2-Aminoethoxyimino)-6-aza-7a-homoandrostane-17-one dihydrochloride]",pIC50,"Na^+,K^+-ATPase; [2]",4.54
"CC12CCC3C(COC(=O)C4CC(=NOC5CCNC5)CCC43C)C1CCC2=O [I-bg, (E,Z) 3-[3-(R)-Pyrrolidinyl]oxyimino-7-oxa-7a-homoandrostane-6,17-dione hydrochloride]",pIC50,"Na^+,K^+-ATPase; [3]",6.09
"CC12CCC3C(CCN(C=O)C4CC(=NOCCN)CCC34C)C1CCC2=O (stereo not shown) [I-an, (E,Z) 3-(2-Aminoethoxyimino)-6-aza-6-formyl-7a-homoandrostane-17-one hydrochloride]",pIC50,"Na^+,K^+-ATPase; [2]",4.64
"CC12CCC3C(OC(=O)CC4CC(=NOCCN)CCC43C)C1CCC2=O (stereo not shown) [I-bi, (E,Z) 3-(2-Aminoethoxyimino)-7a-oxa-7a-homoandrostane-7,17-dione hydrochloride]",pIC50,"Na^+,K^+-ATPase; [2]",6.07
"CC12CCC3C(CC(=O)NC4CC(=NOCCN)CCC43C)C1CCC2=O (stereo not shown) [I-bm, (E) 3-(2-Aminoethoxyimino)-6-aza-7a-homoandrostane-7,17-dione fumarate]",pIC50,"Na^+,K^+-ATPase; [3]",4.60
"CC12CCC3C(NC(=O)CC4CC(=NOC5CCNC5)CCC43C)C1CCC2=O [I-ax, (E,Z) 3-[3-(R)-Pyrrolidinyl]oxyimino-7a-aza-7a-homoandrostane-7,17-dione hydrochloride]",pIC50,"Na^+,K^+-ATPase; [3]",5.32
"CON=C1CC2C3CCC(=O)C3(C)CCC2C2(C)CCC(=NOCCN)CC2N1 (stereo not shown) [I-at, (E,Z) 3-(2-Aminoethoxyimino)-6-aza-7a-homo-7-(Z)-methoxyimino-androstane-17-one hydrochloride]",pIC50,"Na^+,K^+-ATPase; [2]",4.32
"CC12CCC3C(C(=O)NC4CC(=NOCCN)CCC43C)C1CCC2=O (stereo not shown) [I-bu, (E,Z) 3-(2-Aminoethoxyimino)-6-azaandrostane-7,17-dione hydrochloride]",pIC50,"Na^+,K^+-ATPase; [2]",5.96
